Reference: patent US10092537B2, “Use for PAI-1 inhibitor” (RENASCIENCE CO., LTD., priority 2013, dated 2018)
Structures can show the parent of a compound that is named as a salt.

target: human PAI-1 (Homo sapiens, UniProt P05121); experiment: Measurement of PAI-1 inhibitory activity of compound group 1 (t-PA, Spectrozyme t-PA chromogenic substrate); conditions: read-out: PAI-1 activity %
Sequence (P05121 24-402): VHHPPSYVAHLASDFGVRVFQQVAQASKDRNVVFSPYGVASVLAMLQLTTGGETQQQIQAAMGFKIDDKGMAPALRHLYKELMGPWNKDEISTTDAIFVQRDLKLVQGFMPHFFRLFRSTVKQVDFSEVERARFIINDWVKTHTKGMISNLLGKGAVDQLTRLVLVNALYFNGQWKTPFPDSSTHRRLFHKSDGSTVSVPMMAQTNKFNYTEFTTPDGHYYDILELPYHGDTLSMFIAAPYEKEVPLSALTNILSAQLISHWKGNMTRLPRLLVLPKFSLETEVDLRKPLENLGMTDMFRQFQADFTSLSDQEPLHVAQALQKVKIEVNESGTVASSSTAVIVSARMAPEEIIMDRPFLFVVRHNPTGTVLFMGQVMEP
Procedure: Subsequently, human-derived tissue plasminogen activator (t-PA) (manufactured by American Diagnostica, Inc. (USA); the same applies hereinafter) adjusted to 0.05 pmol/μL was added thereto, and the mixture was further incubated at 37° C. for 60 minutes. Then, 0.25 mM of Spectrozyme t-PA synthetic substrate (manufactured by American Diagnostica, Inc. (USA); the same applies hereinafter), which is a chromogenic substrate, was added. The final mixture contained 50 mM Tris-HCl (pH 8), 150 mM NaCl, 1% DMSO, 0.1% PEG-6000, 0.2 mM CHAPS, 5 nM PAI-1, 2 nM t-PA, 0.2 mM Spectrozyme t-PA synthetic substrate, and each compound (10 μM or 2.5 μM).
Free radical p-nitroaniline removed from the chromogenic substrate (Spectrozyme t-PA) by t-PA action was measured using a spectrophotometer at an absorbance of 405 nm at 20-minute intervals, for 120 minutes.

Row | SMILES | activity at 2.5 µM [%] | activity at 10 µM [%]
1 | Cc1cc(C)cc(-c2ccc(OCC(=O)Nc3ccc(Cl)cc3C(=O)O)cc2)c1 [Example 50, 5-chloro-2-({[(3′,5′-dimethylbiphenyl-4-yl)oxy]acetyl}amino)benzoic acid] | 58.9 | 0.1
2 | O=C(O)c1cc(Cl)ccc1NC(=O)c1cc(-c2ccccc2)nc2ccccc12 [Example 107, sodium 5-chloro-2-{[(2-phenylquinolin-4-yl)carbonyl]amino}benzoate] | 100 | 6.7
3 | O=C(Nc1ccc(Cl)cc1C(=O)O)c1cccc(C2CCCCC2)c1 [Example 80, 5-chloro-2-{[(3-cyclohexylphenyl)carbonyl]amino}benzoic acid] | 45.5 | 0
4 | Cc1ccc(-c2cccc(C(=O)Nc3ccc(Cl)cc3C(=O)O)c2)cc1 [Example 32, 5-chloro-2-{[(4′-methylbiphenyl-3-yl)carbonyl]amino}benzoic acid] | 94.4 | 1.7
5 | O=C(O)c1cc(Cl)ccc1NC(=O)c1cc2cc(-c3ccccc3)ccc2n1CCCO [Example 60, 5-chloro-2-({[1-(3-hydroxypropyl)-5-phenyl-1H-indol-2-yl]carbonyl}amino)benzoic acid] | 25 | 0.9
6 | Cn1c(C(=O)Nc2ccc(Cl)cc2C(=O)O)cc2cc(Br)ccc21 [Example 23, 2-{[(5-bromo-1-methyl-1H-indol-2-yl)carbonyl]amino}-5-chlorobenzoic acid] | 97.3 | 1.8
7 | Cc1ccc(-c2ccc(OCC(=O)Nc3ccc(Cl)cc3C(=O)O)cc2)cc1 [Example 49, 5-chloro-2-({[(4′-methylbiphenyl-4-yl)oxy]acetyl}amino)benzoic acid] | 82.1 | 1.1
8 | O=C(Nc1ccc(C2=CCCCC2)cc1C(=O)O)c1ccc(C2CCCCC2)cc1 [Example 81, 5-(cyclohex-1-en-1-yl)-2-{[(4-cyclohexylphenyl)carbonyl]amino}benzoic acid] | 1 | 0
9 | O=C(CCCOc1ccc(C23CC4CC(CC(C4)C2)C3)cc1)Nc1ccc(Cl)cc1C(=O)O [Example 55, 2-({4-[4-(adamantan-1-yl)phenoxy]butanoyl}amino)-5-chlorobenzoic acid] | 29.8 | 1.1
10 | O=C(COc1ccccc1C1CCCCC1)Nc1ccc(Cl)cc1C(=O)O [Example 17, 5-chloro-2-{[(2-cyclohexylphenoxy)acetyl]amino}benzoic acid] | 52.8 | 0.8
11 | Cn1c(C(=O)Nc2ccc(Cl)cc2C(=O)O)cc2cc(-c3ccccc3)ccc21 [Example 48, 5-chloro-2-{[(1-methyl-5-phenyl-1H-indol-2-yl)carbonyl]amino}benzoic acid] | 2.5 | 1.7
12 | O=C(O)c1cc(Cl)ccc1NC(=O)C1CCCC2(CCCCC2)C1 (stereo not shown) [Example 85, 5-chloro-2-[(spiro[5.5]undec-2-ylcarbonyl)amino]benzoic acid] | 97.5 | 11
13 | O=C(Nc1ccc(C23CC4CC(CC(C4)C2)C3)cc1)C(=O)Nc1ccc(Cl)cc1C(=O)O [Example 106, sodium 2-[({[4-(adamantan-1-yl)phenyl]amino}(oxo)acetyl)amino]-5-chlorobenzoate] | 88.4 | 26.3
14 | O=C(COc1ccc(C23CC4CC(CC(C4)C2)C3)cc1)Nc1ccc(-c2ccoc2)cc1C(=O)O [Example 47, 2-({[4-(adamantan-1-yl)phenoxy]acetyl}amino)-5-(furan-3-yl)benzoic acid] | 9.7 | 0.6
15 | O=C(Cc1ccc(-c2ccccc2)cc1)Nc1ccc(Cl)cc1C(=O)O [Example 70, 2-[(biphenyl-4-ylacetyl)amino]-5-chlorobenzoic acid] | 94.6 | 4.4
16 | CC1(c2ccc(C(=O)Nc3ccc(Cl)cc3C(=O)O)cc2)CCCCC1 [Example 98, 5-chloro-2-({[4-(1-methylcyclohexyl)phenyl]carbonyl}amino)benzoic acid] | 41.5 | 0.1
17 | O=C(/C=C/c1cccc(-c2cccc3cccnc23)c1)Nc1ccc(Cl)cc1C(=O)O [Example 101, sodium 5-chloro-2-({(2E)-3-[3-(quinolin-8-yl)phenyl]prop-2-enoyl}amino)benzoate] | 24.7 | 0.2
18 | O=C(Nc1ccc(Cl)cc1C(=O)O)c1cccc(OCc2ccc3ccccc3n2)c1 [Example 99, sodium 5-chloro-2-({[3-(quinolin-2-ylmethoxy)phenyl]carbonyl}amino)benzoate] | 87.8 | 0.3
19 | O=C(CCc1cccc(-c2ccoc2)c1)Nc1ccc(Cl)cc1C(=O)O [Example 36, 5-chloro-2-({3-[3-(furan-3-yl)phenyl]propanoyl}amino)benzoic acid] | 95.7 | 3.7

Row | SMILES | activity at 2.5 µM [%] | activity at 10 µM [%]
20 | O=C(Nc1ccc(Cl)cc1C(=O)O)c1ccc(OCc2ccc3ccccc3n2)cc1 [Example 100, sodium 5-chloro-2-({[4-(quinolin-2-ylmethoxy)phenyl]carbonyl}amino)benzoate] | 92.1 | 0.7
21 | O=C(COc1ccc(C23CC4CC(CC(C4)C2)C3)cc1)Nc1ccc(Cl)cc1C(=O)O [Example 21, 2-({[4-(adamantan-1-yl)phenoxy]acetyl}amino)-5-chlorobenzoic acid] | 10 | 0.3
22 | O=C(Nc1ccc(C2CCCCC2)cc1C(=O)O)c1ccc(C2CCCCC2)cc1 [Example 82, 5-cyclohexyl-2-{[(4-cyclohexylphenyl)carbonyl]amino}benzoic acid] | 1.7 | 1.4
23 | O=C(Nc1ccc(Cl)cc1C(=O)O)c1cccc(-c2cccc3ccccc23)c1 [Example 58, 5-chloro-2-({[3-(naphthalen-1-yl)phenyl]carbonyl}amino)benzoic acid] | 0 | 0
24 | O=C(CN1CCN(C(c2ccccc2)c2ccccc2)CC1)Nc1ccc(Cl)cc1C(=O)O [Example 77, 5-chloro-2-({[4-(diphenylmethyl)piperazin-1-yl]acetyl}amino)benzoic acid] | 89.6 | 19.3
25 | O=C(O)c1cc(Cl)ccc1NC(=O)C1CCCN(C(=O)c2cccc(-c3ccccc3)c2)C1 (stereo not shown) [Example 31, 2-({[1-(biphenyl-3-ylcarbonyl)piperidin-3-yl]carbonyl}amino)-5-chlorobenzoic acid] | 88 | 20.2
26 | O=C(O)c1cc(Cl)ccc1NC(=O)C1(c2cccc(-c3ccoc3)c2)CC1 [Example 35, 5-chloro-2-[({1-[3-(furan-3-yl)phenyl]cyclopropyl}carbonyl)amino]benzoic acid] | 98.8 | 15.6
27 | O=C(Nc1ccc(Cl)cc1C(=O)O)c1ccc(CC23CC4CC(CC(C4)C2)C3)cc1 [Example 96, 2-({[4-(adamantan-1-ylmethyl)phenyl]carbonyl}amino)-5-chlorobenzoic acid] | 23.9 | 5
28 | CC(C)(C)c1cccc(OCC(=O)Nc2ccc(Cl)cc2C(=O)O)c1 [Example 16, 2-{[(3-tert-butylphenoxy)acetyl]amino}-5-chlorobenzoic acid] | 77.4 | 21.9
29 | O=C(CCOc1ccc(C23CC4CC(CC(C4)C2)C3)cc1)Nc1ccc(Cl)cc1C(=O)O [Example 59, 2-({3-[4-(adamantan-1-yl)phenoxy]propanoyl}amino)-5-chlorobenzoic acid] | 56.3 | 1.4
30 | O=C(Nc1ccc(Cl)cc1C(=O)O)c1ccc2c(c1)CCCC2 [Known compound (5), 5-chloro-2-[(5,6,7,8-tetrahydronaphthalene-2-ylcarbonyl)amino] benzoic acid, reference compound] | 98.5 | 18.8
31 | O=C(Nc1ccc(Cl)cc1C(=O)O)c1ccc(C(=O)C23CC4CC(CC(C4)C2)C3)cc1 [Example 56, 2-({[4-(adamantan-1-ylcarbonyl)phenyl]carbonyl}amino)-5-chlorobenzoic acid] | 75.8 | 0.7
32 | O=C(Nc1ccc(Cl)cc1C(=O)O)c1ccc(N2CCCC2)cc1 [Example 83, 5-chloro-2-({[4-(pyrrolidin-1-yl)phenyl]carbonyl}amino)benzoic acid hydrochloride] | 99.1 | 26.6
33 | O=C(CNC(c1ccccc1)c1ccccc1)Nc1ccc(Cl)cc1C(=O)O [Example 73, 5-chloro-2-{[N-(diphenylmethyl)glycyl]amino}benzoic acid] | 82.2 | 31.2
34 | O=C(Nc1ccc(Cl)cc1C(=O)O)c1ccc(C(O)C23CC4CC(CC(C4)C2)C3)cc1 (stereo not shown) [Example 97, 2-[({4-[adamantan-1-yl(hydroxy)methyl]phenyl}carbonyl)amino]-5-chlorobenzoic acid] | 89.9 | 0.7
35 | O=C(Nc1ccc(Cl)cc1C(=O)O)c1ccc(-n2cccc2)cc1 [Salt of Known compound (7), 5-chloro-2-({[4-(1H-pyrrol-1-yl)phenyl]carbonyl}amino)benzoic acid hydrochloride, reference compound] | 100 | 3.7
36 | O=C(Nc1ccc(C#CC2CCCCC2)cc1C(=O)O)c1ccc(C2CCCCC2)cc1 [Example 92, 5-(cyclohexylethynyl)-2-{[(4-cyclohexylphenyl)carbonyl]amino}benzoic acid] | 0 | 0.4
37 | CC(C)(C)c1ccc(OCC(=O)Nc2ccc(Cl)cc2C(=O)O)cc1 [Example 18, 2-{[(4-tert-butylphenoxy)acetyl]amino}-5-chlorobenzoic acid] | 81.4 | 16.1
38 | O=C(/C=C/c1cccc(-c2cccnc2)c1)Nc1ccc(Cl)cc1C(=O)O [Example 103, sodium 5-chloro-2-({(2E)-3-[3-(pyridin-3-yl)phenyl]prop-2-enoyl}amino)benzoate] | 92.3 | 34.2
